Data: the supplement of paper PMC10307832

Legend:
Test in all cases: relative viability (nuclei count vs DMSO), 5 days (fraction); higher = more cells survive
[1] = tested on: A549
In short: (§1)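 Each reported value is a median over duplicate plates. It expresses relative viability: treated-well nuclei count divided by vehicle-well nuclei count. Lung cancer cell lines in 1536-well plates were dosed by pin tool a day after seeding, alone with one drug or with a fixed anchor-drug dose plus five library-drug doses (not always all listed) in √10 steps, and nuclei were counted after 5 days.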

[2] = tested on: Calu-6
In short: as §1

[3] = tested on: ChaGo-K-1
In short: as §1

[4] = tested on: EBC-1
In short: as §1

[5] = tested on: EKVX
In short: as §1

[6] = tested on: IA-LM
In short: as §1

[7] = tested on: LC-2-ad
In short: as §1

[8] = tested on: NCI-H1299
In short: as §1

[9] = tested on: NCI-H1648
In short: as §1

[10] = tested on: NCI-H1666
In short: as §1

[11] = tested on: NCI-H1703
In short: as §1

[12] = tested on: NCI-H1623
In short: as §1

## CN1CCN(CCOc2cc(OC3CCOCC3)c3c(Nc4c(Cl)ccc5c4OCO5)ncnc3c2)CC1 [Saracatinib] + O=C(c1cc(Cc2n[nH]c(=O)c3ccccc23)ccc1F)N1CCN(C(=O)C2CC2)CC1 [Olaparib] (partner 8 µM)
[1]; first compound 0.02 µM
  relative viability: 0.338
[1]; first compound 0.2 µM
  relative viability: 0.174
[1]; first compound 0.6325 µM
  relative viability: 0.341
[1]; first compound 2 µM
  relative viability: 0.305
[2]; first compound 0.02 µM
  relative viability: 0.53
[2]; first compound 0.2 µM
  relative viability: 0.51
[2]; first compound 0.6325 µM
  relative viability: 0.529
[2]; first compound 2 µM
  relative viability: 0.449
[3]; first compound 0.02 µM
  relative viability: 0.423
[3]; first compound 0.2 µM
  relative viability: 0.28
[3]; first compound 0.6325 µM
  relative viability: 0.413
[3]; first compound 2 µM
  relative viability: 0.449
[4]; first compound 0.02 µM
  relative viability: 0.701
[4]; first compound 0.2 µM
  relative viability: 0.709
[4]; first compound 0.6325 µM
  relative viability: 0.729
[4]; first compound 2 µM
  relative viability: 0.734
[5]; first compound 0.02 µM
  relative viability: 0.704
[5]; first compound 0.6325 µM
  relative viability: 0.91
[5]; first compound 2 µM
  relative viability: 0.38
[6]; first compound 0.02 µM
  relative viability: 0.856
[6]; first compound 0.2 µM
  relative viability: 0.884
[6]; first compound 0.6325 µM
  relative viability: 1.06
[6]; first compound 2 µM
  relative viability: 0.76
[7]; first compound 0.02 µM
  relative viability: 0.773
[7]; first compound 0.2 µM
  relative viability: 0.636
[7]; first compound 0.6325 µM
  relative viability: 0.723
[7]; first compound 2 µM
  relative viability: 0.705
[8]; first compound 0.02 µM
  relative viability: 0.923
[8]; first compound 0.2 µM
  relative viability: 0.952
[8]; first compound 0.6325 µM
  relative viability: 1.12
[8]; first compound 2 µM
  relative viability: 0.92
[9]; first compound 0.02 µM
  relative viability: 0.882
[9]; first compound 0.2 µM
  relative viability: 0.678
[9]; first compound 0.6325 µM
  relative viability: 1.75
[9]; first compound 2 µM
  relative viability: 0.417
[10]; first compound 0.02 µM
  relative viability: 0.722
[10]; first compound 0.2 µM
  relative viability: 0.696
[10]; first compound 0.6325 µM
  relative viability: 0.974
[10]; first compound 2 µM
  relative viability: 0.995
[11]; first compound 0.02 µM
  relative viability: 0.425
[11]; first compound 0.2 µM
  relative viability: 0.393
[11]; first compound 0.6325 µM
  relative viability: 0.172
[11]; first compound 2 µM
  relative viability: 0.158

## CN1CCN(CCOc2cc(OC3CCOCC3)c3c(Nc4c(Cl)ccc5c4OCO5)ncnc3c2)CC1 [Saracatinib] + Cc1nc(Nc2ncc(C(=O)Nc3c(C)cccc3Cl)s2)cc(N2CCN(CCO)CC2)n1 [Dasatinib] (partner 0.075 µM)
[3]; first compound 0.02 µM
  relative viability: 0.732
[3]; first compound 0.2 µM
  relative viability: 0.431
[3]; first compound 0.6325 µM
  relative viability: 0.657
[3]; first compound 2 µM
  relative viability: 0.459
[5]; first compound 0.02 µM
  relative viability: 0.5
[5]; first compound 0.2 µM
  relative viability: 0.363
[5]; first compound 0.6325 µM
  relative viability: 0.622
[5]; first compound 2 µM
  relative viability: 0.364
[7]; first compound 0.02 µM
  relative viability: 0.611
[7]; first compound 0.2 µM
  relative viability: 0.571
[7]; first compound 0.6325 µM
  relative viability: 0.794
[7]; first compound 2 µM
  relative viability: 0.596
[12]; first compound 0.02 µM
  relative viability: 0.562
[12]; first compound 0.2 µM
  relative viability: 0.416
[12]; first compound 0.6325 µM
  relative viability: 0.468
[12]; first compound 2 µM
  relative viability: 0.406
[10]; first compound 0.02 µM
  relative viability: 0.772
[10]; first compound 0.2 µM
  relative viability: 0.87
[10]; first compound 0.6325 µM
  relative viability: 0.967
[10]; first compound 2 µM
  relative viability: 0.875

## Cc1cn(-c2cc(NC(=O)c3ccc(C)c(Nc4nccc(-c5cccnc5)n4)c3)cc(C(F)(F)F)c2)cn1 [Nilotinib] + O=C(CCCCCCC(=O)Nc1ccccc1)NO [Vorinostat] (partner 1 µM)
[3]; first compound 0.001 µM
  relative viability: 0.654
[3]; first compound 0.003162 µM
  relative viability: 0.979
[3]; first compound 0.01 µM
  relative viability: 0.804
[3]; first compound 0.03162 µM
  relative viability: 0.733
[3]; first compound 0.1 µM
  relative viability: 0.4
[5]; first compound 0.001 µM
  relative viability: 0.65
[5]; first compound 0.003162 µM
  relative viability: 0.879
[5]; first compound 0.01 µM
  relative viability: 0.704
[5]; first compound 0.03162 µM
  relative viability: 0.55
[5]; first compound 0.1 µM
  relative viability: 0.718
[6]; first compound 0.001 µM
  relative viability: 0.526
[6]; first compound 0.01 µM
  relative viability: 0.987
[6]; first compound 0.03162 µM
  relative viability: 0.352
[6]; first compound 0.1 µM
  relative viability: 0.841
[7]; first compound 0.001 µM
  relative viability: 0.644
[7]; first compound 0.003162 µM
  relative viability: 0.851
[7]; first compound 0.01 µM
  relative viability: 0.772
[7]; first compound 0.03162 µM
  relative viability: 0.545
[7]; first compound 0.1 µM
  relative viability: 0.318
[9]; first compound 0.001 µM
  relative viability: 0.394
[9]; first compound 0.003162 µM
  relative viability: 0.367
[9]; first compound 0.01 µM
  relative viability: 0.372
[9]; first compound 0.03162 µM
  relative viability: 0.172
[10]; first compound 0.001 µM
  relative viability: 0.942
[10]; first compound 0.003162 µM
  relative viability: 1.11
[10]; first compound 0.01 µM
  relative viability: 1.17
[10]; first compound 0.03162 µM
  relative viability: 1.11
[10]; first compound 0.1 µM
  relative viability: 1.17

## Cc1csc(=NC2CCCCC2)n1/N=C/c1ccc(O)c(O)c1O [MIM1] + O=C(CCCCCCC(=O)Nc1ccccc1)NO [Vorinostat] (partner 1 µM)
[3]; first compound 0.2 µM
  relative viability: 0.714
[3]; first compound 0.6325 µM
  relative viability: 0.449
[3]; first compound 2 µM
  relative viability: 0.699
[3]; first compound 6.325 µM
  relative viability: 0.543
[3]; first compound 20 µM
  relative viability: 0.157
[5]; first compound 0.2 µM
  relative viability: 0.609
[5]; first compound 2 µM
  relative viability: 0.707
[5]; first compound 6.325 µM
  relative viability: 0.473
[5]; first compound 20 µM
  relative viability: 0.265
[6]; first compound 0.2 µM
  relative viability: 0.883
[6]; first compound 0.6325 µM
  relative viability: 0.935
[6]; first compound 2 µM
  relative viability: 0.93
[6]; first compound 6.325 µM
  relative viability: 0.57
[6]; first compound 20 µM
  relative viability: 0.159
[7]; first compound 0.2 µM
  relative viability: 0.698
[7]; first compound 0.6325 µM
  relative viability: 0.306
[7]; first compound 2 µM
  relative viability: 0.777
[7]; first compound 6.325 µM
  relative viability: 0.267
[7]; first compound 20 µM
  relative viability: 0.204
[9]; first compound 0.2 µM
  relative viability: 0.431
[9]; first compound 0.6325 µM
  relative viability: 0.396
[9]; first compound 2 µM
  relative viability: 0.337
[9]; first compound 6.325 µM
  relative viability: 0.404
[9]; first compound 20 µM
  relative viability: 0.206
[10]; first compound 0.2 µM
  relative viability: 1.01
[10]; first compound 0.6325 µM
  relative viability: 0.922
[10]; first compound 2 µM
  relative viability: 1.08
[10]; first compound 6.325 µM
  relative viability: 0.769
[10]; first compound 20 µM
  relative viability: 0.477
